Data taken from article PMC7140522, “The Pyrazolo[3,4-d]pyrimidine Derivative, SCO-201, Reverses Multidrug Resistance Mediated by ABCG2/BCRP” (Cells, 2020).
Read-outs that look alike come from different tables or passages of the source.

What was measured:
HT29SN-38-RES cells = experiment: MDR reversal analysis with MTT assay, HT29SN-38-RES; format: cell-based, human; settings: 72 hours, oxaliplatin is not a substrate for BCRP
Description: Control conditions consisted of full growth medium. All treatments were performed in triplicate.

ABCG2 (BCRP) = target: T1, ABCG2 (BCRP) (Homo sapiens, UniProt Q9UNQ0); experiment: Hoechst 33342 accumulation assay in MDCK-II-BCRP cells; format: cell-based; settings: MDCK cells overexpressing BCRP, steady-state fluorescence
T1 construct: expressed in transfected cells; host or cells: MDCK-II (canine kidney)
T1 sequence (Q9UNQ0 whole entry): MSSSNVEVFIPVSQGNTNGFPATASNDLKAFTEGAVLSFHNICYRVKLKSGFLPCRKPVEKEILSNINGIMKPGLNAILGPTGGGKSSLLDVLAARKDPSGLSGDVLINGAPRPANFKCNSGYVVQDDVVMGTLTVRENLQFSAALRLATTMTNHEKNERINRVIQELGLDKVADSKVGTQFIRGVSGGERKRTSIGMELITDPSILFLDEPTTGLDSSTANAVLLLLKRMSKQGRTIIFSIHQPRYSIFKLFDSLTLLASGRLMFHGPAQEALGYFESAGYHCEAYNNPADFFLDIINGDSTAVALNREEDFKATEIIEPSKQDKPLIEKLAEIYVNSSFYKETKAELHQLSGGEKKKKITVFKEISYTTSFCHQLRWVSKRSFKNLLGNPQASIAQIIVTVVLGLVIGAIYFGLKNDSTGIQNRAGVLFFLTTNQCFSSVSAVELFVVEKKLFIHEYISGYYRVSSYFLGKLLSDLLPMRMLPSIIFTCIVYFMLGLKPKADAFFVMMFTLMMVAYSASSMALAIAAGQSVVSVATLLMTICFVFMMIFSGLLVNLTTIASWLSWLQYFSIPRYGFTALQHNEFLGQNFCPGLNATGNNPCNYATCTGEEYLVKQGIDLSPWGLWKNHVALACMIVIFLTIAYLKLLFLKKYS

ABCG2 = target: T2, ABCG2 (Homo sapiens, UniProt Q9UNQ0); experiment: Pheophorbide A accumulation assay in MDCK cells; format: cell-based; settings: flow cytometry
T2 construct: expressed in transfected cells; host or cells: MDCK-II (canine kidney)
T2 sequence (Q9UNQ0 whole entry): as above

CYP2C9 = CYP2C9 (Homo sapiens, UniProt P11712); experiment: CYP inhibition, CYP2C9; format: in vitro ADME; settings: Human liver microsomes, diclofenac substrate
Sequence of CYP2C9 (P11712 whole entry): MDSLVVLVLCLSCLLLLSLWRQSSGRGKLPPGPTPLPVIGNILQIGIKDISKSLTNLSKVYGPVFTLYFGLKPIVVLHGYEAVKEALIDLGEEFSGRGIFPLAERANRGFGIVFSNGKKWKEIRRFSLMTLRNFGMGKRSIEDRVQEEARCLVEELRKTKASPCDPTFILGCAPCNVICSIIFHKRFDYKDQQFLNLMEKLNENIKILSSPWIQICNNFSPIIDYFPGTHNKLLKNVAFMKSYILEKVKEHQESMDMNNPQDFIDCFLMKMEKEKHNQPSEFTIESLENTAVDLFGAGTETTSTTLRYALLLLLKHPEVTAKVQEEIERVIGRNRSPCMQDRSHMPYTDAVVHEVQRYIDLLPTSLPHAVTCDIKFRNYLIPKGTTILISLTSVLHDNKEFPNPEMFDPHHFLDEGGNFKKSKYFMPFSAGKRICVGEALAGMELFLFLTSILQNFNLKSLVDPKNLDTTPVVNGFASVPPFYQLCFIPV

CYP1A [1] = experiment: CYP induction in human hepatocytes, CYP1A enzyme activity; format: in vitro ADME
CYP1A2 = experiment: CYP induction in human hepatocytes, CYP1A2 mRNA; format: in vitro ADME; settings: plated human hepatocytes
CYP2B6 [2] = experiment: CYP induction in human hepatocytes, CYP2B6 mRNA; format: in vitro ADME; settings: plated human hepatocytes
CYP2B6 [3] = experiment: CYP induction in human hepatocytes, CYP2B6 enzyme activity; format: in vitro ADME
CYP3A [4] = experiment: CYP induction in human hepatocytes, CYP3A enzyme activity; format: in vitro ADME
Description: The following procedure was carried out to test whether SCO-201 induces CYP1A, CYP2B6, and CYP3A activities in human hepatocytes. The procedure was designed in accordance with the FDA Guidance for Industry on Drug Interaction Studies (2006). Male and female human hepatocytes were thawed and plated into collagen-coated 96-well plates in serum-containing medium (plating medium) at a density of 0.7 × 10^6 viable cells/mL. The hepatocytes were cultured in a humidified incubator at 37 °C and 5% CO2. At 4 h post plating, human hepatocytes were washed once with fresh plating medium, followed by overnight incubation. At 24 h after plating, the plating medium was removed, and the hepatocytes were overlaid with extracellular matrix (ECM) (Sigma) or Matrigel (BD) in the serum-free medium (incubation medium), and then incubated for another 24 h. Incubation medium with 0.1% DMSO was used as the negative control. After the 2-day recovery period, the hepatocytes were treated with SCO-201 or a known inducer (Table S3) in the incubation medium on day 3 and day 4. The known inducer was tested as the positive control. On day 5, the medium was removed, and the cells were incubated with the respective CYP substrate in Krebs–Henseleit buffer (pH 7.4) containing 3 mM salicylamide for 30 min. The reaction was terminated by transferring the incubation mixture to an equal volume of acetonitrile/methanol mixture (1/1, v/v). Samples were mixed and centrifuged. Supernatants are used for HPLC-MS/MS analysis of the corresponding metabolite. Peak areas corresponding to the metabolite were recorded. The assay was rendered valid if enzyme activity with the positive control was at least twofold greater than negative control.
Cells 2020, 9, x FOR PEER REVIEW 9 of 9
Substrate (conc.) Metabolite Assay
Ethoxyresorufin (2 µM) Resorufin CYP1A
Bupropion (200 µM) Hydrozyl-bupropion CYP2B6
Midazolam (10 µM) 1-hydroxymidazolam CYP3A
139 Table S3: In vitro DMPK analysis: CYP induction.
140 were applied as inducers of the investigated CYPs.
144 References for supplementary materials
146 1. […]

CYP3A [5] = experiment: CYP induction in human hepatocytes, CYP3A mRNA; format: in vitro ADME; settings: plated human hepatocytes
CYP1A [6] = target: CYP1A (Homo sapiens, UniProt P05177)
Sequence of CYP1A (Homo sapiens, UniProt P05177) (P05177 whole entry): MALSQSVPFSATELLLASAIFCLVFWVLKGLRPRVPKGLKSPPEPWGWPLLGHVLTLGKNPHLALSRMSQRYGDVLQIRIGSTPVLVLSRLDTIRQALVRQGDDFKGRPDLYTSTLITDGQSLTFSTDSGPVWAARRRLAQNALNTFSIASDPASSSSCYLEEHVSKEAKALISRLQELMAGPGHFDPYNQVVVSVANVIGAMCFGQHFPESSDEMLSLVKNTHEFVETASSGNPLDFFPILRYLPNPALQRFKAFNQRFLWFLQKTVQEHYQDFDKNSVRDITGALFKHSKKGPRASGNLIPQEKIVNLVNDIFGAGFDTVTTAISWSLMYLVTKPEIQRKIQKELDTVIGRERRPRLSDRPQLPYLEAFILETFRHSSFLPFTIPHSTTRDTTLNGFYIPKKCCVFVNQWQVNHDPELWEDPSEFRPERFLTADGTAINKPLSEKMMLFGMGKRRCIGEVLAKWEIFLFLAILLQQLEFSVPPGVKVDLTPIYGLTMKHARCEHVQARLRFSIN

[7] = set-up: method as in PMID 26260222; settings: cited from earlier work
[8] = set-up: method as in PMID 26260222; settings: mice; cited from earlier work
CYP3A [9] = target: CYP3A (Homo sapiens, UniProt P08684); experiment: in vitro; settings: both, pooled human liver microsomes, pH 7.4, probe testosterone
Sequence of CYP3A (Homo sapiens, UniProt P08684) (P08684 2-503): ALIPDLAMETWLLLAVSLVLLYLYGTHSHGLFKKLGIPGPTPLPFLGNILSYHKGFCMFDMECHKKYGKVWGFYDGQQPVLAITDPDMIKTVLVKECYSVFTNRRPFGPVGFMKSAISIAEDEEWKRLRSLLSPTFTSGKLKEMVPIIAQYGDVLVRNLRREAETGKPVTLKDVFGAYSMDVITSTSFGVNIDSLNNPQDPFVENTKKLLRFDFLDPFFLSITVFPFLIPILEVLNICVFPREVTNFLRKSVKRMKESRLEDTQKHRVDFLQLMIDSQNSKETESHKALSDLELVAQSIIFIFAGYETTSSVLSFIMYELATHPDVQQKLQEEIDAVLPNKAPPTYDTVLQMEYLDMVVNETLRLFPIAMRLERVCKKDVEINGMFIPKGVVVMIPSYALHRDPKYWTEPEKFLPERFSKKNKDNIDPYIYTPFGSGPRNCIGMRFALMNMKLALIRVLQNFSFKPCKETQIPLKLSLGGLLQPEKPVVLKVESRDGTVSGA

[10] = tested on: CYP1A, CYP2B6, CYP2C8, CYP2C9, CYP2C19, CYP2D6, CYP3A; experiment: in vitro; settings: both, human, pooled human liver microsomes, pH 7.4
CYP2C8 = CYP2C8 (Homo sapiens, UniProt P10632); experiment: biochemical
Sequence of CYP2C8 (P10632 whole entry): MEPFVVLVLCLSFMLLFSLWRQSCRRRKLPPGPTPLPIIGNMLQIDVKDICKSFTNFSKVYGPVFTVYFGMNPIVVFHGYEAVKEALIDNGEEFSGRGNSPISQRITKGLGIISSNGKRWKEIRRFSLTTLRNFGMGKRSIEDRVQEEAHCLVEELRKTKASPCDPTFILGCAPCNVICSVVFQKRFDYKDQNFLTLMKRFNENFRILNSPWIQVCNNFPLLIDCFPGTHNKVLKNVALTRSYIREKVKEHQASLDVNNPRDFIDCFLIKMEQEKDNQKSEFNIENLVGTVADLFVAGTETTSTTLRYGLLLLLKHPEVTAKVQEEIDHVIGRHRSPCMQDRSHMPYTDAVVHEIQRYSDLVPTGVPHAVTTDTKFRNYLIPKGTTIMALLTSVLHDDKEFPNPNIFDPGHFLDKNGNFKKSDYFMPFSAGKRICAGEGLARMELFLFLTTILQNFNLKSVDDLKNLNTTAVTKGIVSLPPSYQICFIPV

[11] = Donor 1, read-out: Mean Fold Induction of mRNA at 1× 10^−4 M
[12] = Donor 2, read-out: Mean Fold Induction of mRNA at 1× 10^−4 M
[13] = Donor 3, read-out: Mean Fold Induction of mRNA at 1× 10^−4 M

IC50 (ABCG2 (BCRP)): 0.175 µM | IC50 (ABCG2): 0.145 µM | IC50 (CYP2C9): > 100 µM | Mean Fold Enzyme Activity Induction at 1 × 10^−4 M (CYP1A [1]; Donor 1): 1 | Mean Fold Enzyme Activity Induction at 1 × 10^−4 M (CYP1A [1]; Donor 2): 0.7 | Mean Fold Enzyme Activity Induction at 1 × 10^−4 M (CYP1A [1]; Donor 3): 0.7 | fold induction at 2 days (CYP1A2; [11]): 0.24 | fold induction at 2 days (CYP1A2; [12]): 0.39 | fold induction at 2 days (CYP1A2; [13]): 0.26 | fold induction at 2 days (CYP2B6 [2]; [11]): 0.17 | fold induction at 2 days (CYP2B6 [2]; [12]): 0.52 | fold induction at 2 days (CYP2B6 [2]; [13]): 0.45 | Mean Fold Enzyme Activity Induction at 1 × 10^−4 M (CYP2B6 [3]; Donor 1): 0.8 | Mean Fold Enzyme Activity Induction at 1 × 10^−4 M (CYP2B6 [3]; Donor 2): 0.9 | Mean Fold Enzyme Activity Induction at 1 × 10^−4 M (CYP2B6 [3]; Donor 3): 0.6 | Mean Fold Enzyme Activity Induction at 1 × 10^−4 M (CYP3A [4]; Donor 1): 1.3 | Mean Fold Enzyme Activity Induction at 1 × 10^−4 M (CYP3A [4]; Donor 2): 2.0 | Mean Fold Enzyme Activity Induction at 1 × 10^−4 M (CYP3A [4]; Donor 3): 0.4 | fold induction at 2 days (CYP3A [5]; [11]): 0.25 | fold induction at 2 days (CYP3A [5]; [12]): 0.25 | fold induction at 2 days (CYP3A [5]; [13]): 0.32 | IC50 (CYP1A [6]): > 100 µM | IC50 at 10 min (CYP3A [9]): > 100 µM | IC50 at 10 min [10]: ≥ 100 µM | IC50 (CYP2C8): > 100 µM
SMILES: Nc1nc(-c2ccccc2)nc2[nH]nc(Nc3ccc(C(F)(F)F)cc3)c12 [SCO-201]
combinatorial effect with oxaliplatin on cell viability (HT29SN-38-RES cells): no added effects | stability in serum [7]: stable in serum | oral activity [8]: orally active
